Measurements from patent US20090099123A1, “Antisense microRNA and uses therefor” (priority 2007, published 2009).

Key:
miR-27a [1] = settings: these and other cancer cells (refs 23, 42, 43); cited from earlier work
[2] = system: prostate and pancreatic tumors and cells; settings: cited from earlier work
[3] = system: RKO and SW480 colon cancer cells; assay: Cell proliferation assay in colon cancer cells; assay type: cell-based
Experimental: (§1) FIG. 8A: Decreased cell survival in RKO cells. […] Cell survival is expressed as the percentage of β-CDODA-Me-treated cells remaining compared to DMSO (set at 100%).
(§2) RKO and SW480 colon cancer cells (2×10^4 per well) were plated in 12-well plates and allowed to attach for 24 hr. The medium was then changed to DMEM/Ham's F-12 medium containing 2.5% charcoal-stripped FBS, and either vehicle (DMSO) or different concentrations of the compound were added. Fresh medium and compounds were added every 48 hr, and cells were then trypsinized and counted after 48 and 96 hr using a Coulter Z1 cell counter. Transfection experiments in RKO and SW480 cells used 0.4 μg of reporter gene constructs and 0.04 μg of β-Gal and LipofectAMINE 2000 reagent (Invitrogen). Results of cell proliferation and transfection studies are expressed as means±S.E. for at least three replicate determinations for each treatment group. Western blots were determined with whole cell lysates essentially.

RKO and SW480 cells [4] = assay: Induction of apoptosis / PARP cleavage in colon cancer cells (Western blot); assay type: cell-based
Experimental: as §1, §2

[5] = system: Sp1, Sp3, Sp4, VEGF, VEGFR1 and survivin; assay: Sp and Sp-dependent mRNA and proteins in colon cancer cells (semi-quantitative RT-PCR, Western blot); assay type: cell-based
Text: (§3) ID NO: 8), ZBTB10 (sense [NT] ID NO: 9); antisense [NT] ID NO: 10), VEGF (sense [NT] ID NO: 11); antisense [NT] ID NO: 12), VEGFR1 (sense [NT] ID NO: 13); antisense [NT] ID NO: 14), Survivin (sense [NT] ID NO: 15); antisense [NT] ID NO: 16) and GAPDH (sense [NT] ID NO: 17); antisense [NT] ID NO: 18).

Sp1 gene promoter = assay: Sp1 promoter construct luciferase activity in RKO cells; assay type: cell-based
Experimental: as §2

Sp3 gene promoter = assay: Sp3 promoter construct luciferase activity in RKO cells; assay type: cell-based
Experimental: as §2

miR-27a [6] = assay: miR-27a by quantitative real time PCR in colon cancer cells; assay type: cell-based; settings: RKO and SW480 cells, 18 hr
Experimental: (§4) cDNA was prepared from the RKO and SW480, cell lines using Reverse Transcription System (Promega). Each PCR was carried out in triplicate in a 20-μl volume using SYBR Green Mastermix (Applied Biosystems, Foster City, Calif.) for 15 min at 95° C. for initial denaturing, followed by 40 cycles of 95° C. for 30 s and 60° C. for 1 min in the Applied Biosystems 7900HT Fast Real-time PCR System. The ABI Dissociation Curves software was used following a brief thermal protocol (95° C. for 15 s and 60° C. for 15 s, followed by a slow ramp to 95° C.) to control for multiple species in each PCR amplification. Values for each gene were normalized to expression levels of TATA-binding protein. The primers used for real-time PCR were Myt-1 (sense 5′-CCTTCCAAGAGTAGCTCCAATTC-3′ (SEQ ID NO: 19); antisense 5′-GCC GGT AGC TCC CAT ATG G-3′) (SEQ ID NO: 20) and TATA-binding protein (sense 5′-TGC ACA GGA GCC AAG AGT GM-3′ (SEQ ID NO: 21); antisense 5′-CACATCACAGCTCCCCACCA-3′) (SEQ ID NO: 22). miRNA was extracted using the mirVana miRNA extraction kit (Applied Biosystems). Quantification of miRNA (RNU6B and miRNA-27a) was done using the Taqman miRNA kit (Applied Biosystems) according to the manufacturer's protocol with real-time PCR. U6 small nuclear RNA was used as a control to determine relative miRNA expression.

ZBTB10 = ZBTB10 by semi-quantitative RT-PCR in colon cancer cells; assay type: cell-based; settings: RKO or SW480 cells, 18 hr
Text: as §3

RKO and SW480 cells [7] = assay: FACS cell cycle analysis in colon cancer cells; assay type: cell-based
Experimental: Effects of β-CDODA-Me. SW480 (FIG. 12A) and RKO (FIG. 12B) cells were treated for 24 hr with DMSO(O), 2.5 and 5.0 μM β-CDODA-Me, and analyzed by FACS analysis. FIG. 12C: iSp modulates Sp protein expression and the cell cycle in SW480 and RKO cells. Cells were transfected with iSp, a combination of small inhibitory RNAs for Sp1, Sp3 and Sp4 or a non-specific oligonucleotide (iLamin), and analyzed for Sp proteins by Western blots (to confirm Sp knockdown) and FACS analysis. FIG. 12D: as-miR-27a modulates the cell cycle. SW480 and RKO cells were transfected with different amounts of as-miR-27a and, after 48 hr, analyzed by FACS. All experiments in FIGS. 12A-12D were repeated three times, and results are expressed as means±SE. Significant (p<0.05) changes compared to untreated (0) or iLamin-treated cells are indicated by asterisks.
RKO and SW480 cells were treated with either the vehicle (DMSO) or the compound for 24 hr or with as-miR27a. Cells were trypsinized, centrifuged, and resuspended in staining solution containing 50 μg/mL propidium iodide, 4 mmol/L sodium citrate and 30 units/mL RNase. After incubation at room temperature for 1 hr, cells were analysed on a FACS Vantage SE DiVa made by Becton Dickinson (BD), using BD FACSDiva Software V4.1.1. Propidium iodide (PI) fluorescence was collected through a 610SP bandpass filter, and list mode data were acquired on a minimum of 50,000 single cells defined by a dot plot of PI width vs. PI area. Data analysis was performed in BD FACSDiva Software V4.1.1 using PI width vs. PI area to exclude cell aggregates.

Myt-1, Wee-1 and cdc2 = assay: Myt-1 and Wee-1 expression and cdc2 phosphorylation in colon cancer cells; assay type: cell-based
Experimental: (§5) FIGS. 13A-13D show the in vitro and in vivo effects of β-CDODA-Me on G2/M arrest and inhibition of tumor growth. Effects of β-CDODA-Me (FIG. 13A, 13B) and as-miR-27a (FIG. 13C) on Myt-1 and cdc2 phosphorylation. Colon cancer cells were treated with different amounts of β-CDODA-Me or as-miR-27a for the indicated times, and Myt-1 expression and cdc2 phosphorylation were determined by real time PCR or Western blots, respectively. […] FIGS. 13D-13F: β-CDODA-Me inhibit tumor growth (volume) (FIG. 13D), weight (FIG. 13E) and miR-27a expression (FIG. 13F) in a mouse xenograft model. Nude mice bearing RKO cells as xenografts were treated with corn oil (solvent control) or β-CDODA-Me (15 mg/kg/d), and tumor volumes, tumor weights, and miR-27a expression were determined.
as §4

RKO cells as xenografts = assay: Xenograft study in athymic nude mice; assay type: in vivo
Experimental: as §5
Mice were used in accordance with institutional guidelines when they were 8-12 wk old. To produce tumors, RKO cells were harvested from subconfluent cultures by a brief exposure to 0.25% trypsin and 0.02% EDTA and only suspensions consisting of single cells with >90% viability were used for the injections. A xenograft was established by s.c. injection of the cells (5×10^6) into the flanks of individual mice and, after 6 days, mice were randomized into two groups of 5 mice per group and dosed by oral gavage in corn oil or 15 mg/kg/d B-CDODA-Me 5 days a week for 22 days. The mice were weighed, and tumor size was measured every third day with calipers to permit calculation of tumor volumes: V=LW^2/2, where L and W were length and width, respectively. Final tumors weights were determined at the end of the dosing regimen. Tumor tissues and selected body organs (liver and kidney) were either stored in RNAlater solution (per manufacture's recommendations) for later microRNA analysis, snap frozen and stored at −80° C., or fixed in 10% formalin and embedded in paraffin.

[8] = 15 mg/kg/d oral gavage, 5 days a week for 22 days, vs corn oil

SMILES: Cc1c(Cl)cccc1Nc1ccccc1C(=O)O [tolfenamic acid]
- levels of miR-27a RNA (miR-27a [1]): decrease
- growth of prostate and pancreatic tumors and cells [2]: inhibit growth

SMILES: COC(=O)[C@@]1(C)CC[C@]2(C)CC[C@]3(C)C(=CC(=O)[C@@H]4[C@@]5(C)C=C(C#N)C(=O)C(C)(C)[C@@H]5CC[C@]43C)[C@@H]2C1 [β-CDODA-Me, methyl-2-cyano-3,11-dioxo-18β-olean-1,12-dien-30-oate]
- proliferation ([3]; 0.5-5 μM, 4 days): decreased proliferation
- proliferation and apoptosis responses after cotreatment with T007 ([3]; T007 10 μM): not affected
- apoptosis (RKO and SW480 cells [4]; RKO and SW480 cells): induced apoptosis
- caspase-dependent PARP cleavage (RKO and SW480 cells [4]; colon cancer cells (β-CDODA-Me: RKO; ZBTB10: SW480 and RKO)): induced
- Sp1, Sp3 and Sp4 mRNA levels ([5]; 24 hr, semi-quantitative RT-PCR): decreased expression
- expression of Sp-dependent proteins survivin, VEGFR1 (Flt-1) and VEGF ([5]; Western blot): decreased expression
- luciferase activity, Sp1 promoter constructs (pSp1For4, pSp1For2, pSp1For1) (Sp1 gene promoter): decreased luciferase activity
- luciferase activity, Sp3 promoter constructs (pSp3For5, pSp3For2) (Sp3 gene promoter): decreased luciferase activity
- miR-27a (miR-27a [6]): decreased
- ZBTB10 levels (ZBTB10): induced
- cell cycle arrest (RKO and SW480 cells [7]): induced a G2/M arrest
- percentage of cells in S phase (RKO and SW480 cells [7]; 24 hr, 2.5 and 5.0 μM respectively): increased and then decreased
- cells in G2/M (RKO and SW480 cells [7]; 24 hr, 2.5 and 5.0 μM, vs DMSO): increase
- percentage of cells in G0/G1 (RKO and SW480 cells [7]; 24 hr, 2.5 and 5.0 μM, vs DMSO): concentration-dependent decrease
- cdc2 phosphorylation (Myt-1, Wee-1 and cdc2; RKO and SW480 cells, Western blot): time-dependent induction
- Myt-1 mRNA expression (Myt-1, Wee-1 and cdc2; RKO and SW480 cells, real time PCR): induced
- Wee-1 expression (Myt-1, Wee-1 and cdc2; SW480 or RKO cells): did not affect
- body or organ weight loss associated with toxic side effects (RKO cells as xenografts; 15 mg/kg/d): not accompanied by any body or organ weight loss
- miR-27a expression in tumors (RKO cells as xenografts; [8]): inhibited
- tumor growth (volume) (RKO cells as xenografts; [8]): inhibited
- tumor weight (RKO cells as xenografts; [8]): inhibited
- levels of miR-27a RNA (miR-27a [1]): decrease
